Data reported in BigSolDB 2.1.

NS(=O)(=O)Cc1noc2ccccc12
solubility (mole fraction)
Details | 278.15 K | 283.15 K | 288.15 K | 293.15 K | 298.15 K | 303.15 K | 308.15 K | 313.15 K | 318.15 K | 323.15 K
in DMF | 0.0292 | 0.0356 | 0.0428 | 0.0514 | 0.0612 | 0.0721 | 0.0852 | 0.101 | 0.118 | 0.136
in acetonitrile | 0.00682 | 0.00802 | 0.00937 | 0.0108 | 0.0124 | 0.0142 | 0.0162 | 0.0183 | 0.0207 | 0.0233
in ethanol | 0.00139 | 0.00162 | 0.00185 | 0.00215 | 0.00245 | 0.00279 | 0.00316 | 0.00356 | 0.004 | 0.00446
in isopropanol | 0.000797 | 0.000963 | 0.00115 | 0.00137 | 0.00163 | 0.00192 | 0.00226 | 0.00264 | 0.00306 | 0.00352
in water | 1.78e-05 | 2.5e-05 | 3.43e-05 | 4.67e-05 | 6.49e-05 | 8.56e-05 | 0.000112 | 0.00015 | 0.000196 | 0.000256
